Consider eight molecules from PubChem BioAssay AID1259407 (Chemical Carcinogenesis Research Information System (CCRIS), 2018).

The source made the active and inactive calls. No rule for the calls is given here.

In this series the test system is CCRIS mutagenicity, Ames/micronucleus/aberration tests. Kind of series: CCRIS mutagenicity studies.
Where [1] appears, read: Test System: AMES SALMONELLA TYPHIMURIUM, Strain/Indicator: TA100, Metabolic Activation: S-9, Method: STANDARD PLATE.
Where [2] appears, read: Test System: AMES SALMONELLA TYPHIMURIUM, Strain/Indicator: TA98, Metabolic Activation: NONE, Method: PREINCUBATION
[3] abbreviates: Test System: AMES SALMONELLA TYPHIMURIUM, Strain/Indicator: TA100, Metabolic Activation: NONE, Method: PREINCUBATION

Take `O=C(N=c1sn(C(=O)c2ccccc2)c2ccc([N+](=O)[O-])cc12)c1ccccc1`: under setting [1], the mutagenic call was “active; positive”.
Turning to `C#CCO`, the mutagenic call reads like this: (End Point: In vivo micronucleus, Test System: Normochromatic erythrocytes, Species: Mouse, Strain/Sex: B6C3F1/Male) “inactive; negative”; (End Point: In vivo micronucleus, Test System: Normochromatic erythrocytes, Species: Mouse, Strain/Sex: B6C3F1/female) “inactive; negative. in females, statistically significant trend test but no individual gro”; (Test System: AMES SALMONELLA TYPHIMURIUM, Strain/Indicator: TA97, Metabolic Activation: NONE) “inactive; negative”; (Test System: AMES SALMONELLA TYPHIMURIUM, Strain/Indicator: TA97, Metabolic Activation: RAT, LIVER, S-9, AROCLOR 1254) “inactive; negative”; (Test System: AMES SALMONELLA TYPHIMURIUM, Strain/Indicator: TA98, Metabolic Activation: NONE) “inactive; negative”; (Test System: AMES SALMONELLA TYPHIMURIUM, Strain/Indicator: TA98, Metabolic Activation: RAT, LIVER, S-9, AROCLOR 1254) “inactive; negative”. Also, the mutagenic call (Test System: AMES SALMONELLA TYPHIMURIUM, Strain/Indicator: TA100, Metabolic Activation: NONE) is “inactive; negative”; the mutagenic call (Test System: AMES SALMONELLA TYPHIMURIUM, Strain/Indicator: TA100, Metabolic Activation: RAT, LIVER, S-9, AROCLOR 1254) was “inactive; negative”; the mutagenic call (Test System: AMES SALMONELLA TYPHIMURIUM, Strain/Indicator: TA102, Metabolic Activation: NONE) was “inactive; negative”; the mutagenic call (Test System: AMES SALMONELLA TYPHIMURIUM, Strain/Indicator: TA102, Metabolic Activation: RAT, LIVER, S-9, AROCLOR 1254) was “inactive; negative”; the mutagenic call (Test System: Ames Salmonella typhimurium, Strain/Indicator: TA98, Metabolic Activation: Hamster, Liver, S9, Aroclor 1254 (30%), Method: Preincubation) was “inactive; negative. authors judged results as equivocal”; the mutagenic call (Test System: Ames Salmonella typhimurium, Strain/Indicator: TA98, Metabolic Activation: Rat, Liver, S9, Aroclor 1254 (30%), Method: Preincubation) was “inactive; negative. precipitate at highest dose”. The mutagenic call (Test System: Ames Salmonella typhimurium, Strain/Indicator: TA100, Metabolic Activation: Hamster, Liver, S9, Aroclor 1254 (30%), Method: Preincubation) was “inactive; negative”; the mutagenic call (Test System: Ames Salmonella typhimurium, Strain/Indicator: TA100, Metabolic Activation: Rat, Liver, S9, Aroclor 1254 (30%), Method: Preincubation) was “inactive; negative”; the mutagenic call (Test System: Ames Salmonella typhimurium, Strain/Indicator: TA1535, Metabolic Activation: None, Method: Preincubation) was “inactive; negative”.
With `Nc1ccc(Oc2ccc(Cl)cc2Cl)cc1`, the mutagenic call was “active; positive” (Test System: AMES SALMONELLA TYPHIMURIUM, Strain/Indicator: TA98, Metabolic Activation: S-9, Method: STANDARD PLATE); “active; positive” under setting [1]; “active; positive” (Test System: AMES SALMONELLA TYPHIMURIUM, Strain/Indicator: YG1021, Metabolic Activation: S-9, Method: STANDARD PLATE); “active; positive” (Test System: AMES SALMONELLA TYPHIMURIUM, Strain/Indicator: YG1024, Metabolic Activation: S-9, Method: STANDARD PLATE); “active; positive” (Test System: AMES SALMONELLA TYPHIMURIUM, Strain/Indicator: YG1026, Metabolic Activation: S-9, Method: STANDARD PLATE); “active; positive” (Test System: AMES SALMONELLA TYPHIMURIUM, Strain/Indicator: YG1029, Metabolic Activation: S-9, Method: STANDARD PLATE).
Regarding `Nc1ncnc2c1ncn2[C@@H]1O[C@H](CO)[C@@H](O)[C@@H]1O`, the mutagenic call (Test System: CHINESE HAMSTER OVARY, Strain/Indicator: CHO/6-THIOGUANINE, Metabolic Activation: NONE) is “active; positive”.
As for `CCCCCCC(CCCC)COc1ccc(-c2ccc(-c3ccc(-c4ccc(OCC(CCCC)CCCCCC)cc4)cc3)cc2)cc1` (stereo not drawn), the mutagenic call reads like this: (Test System: AMES SALMONELLA TYPHIMURIUM, Strain/Indicator: TA1538, Metabolic Activation: NONE, Method: STANDARD PLATE) “inactive; negative”; (Test System: AMES SALMONELLA TYPHIMURIUM, Strain/Indicator: TA1538, Metabolic Activation: RAT, LIVER, S-9, AROCLOR 1254, Method: STANDARD PLATE) “inactive; negative”.
For the molecule `CC(=O)c1cccc(N=[N+]([O-])c2ccc(N)c(C(C)=O)c2C)c1C`, the mutagenic call was “inactive; negative” under setting [2]; “inactive; negative” (Test System: AMES SALMONELLA TYPHIMURIUM, Strain/Indicator: TA98, Metabolic Activation: RAT, LIVER, S-9, PHENOBARBITAL AND 5,6-BENZOFLAVONE, Method: PREINCUBATION); “inactive; negative” under setting [3]; “inactive; negative” (Test System: AMES SALMONELLA TYPHIMURIUM, Strain/Indicator: TA100, Metabolic Activation: RAT, LIVER, S-9, PHENOBARBITAL AND 5,6-BENZOFLAVONE, Method: PREINCUBATION).
For the molecule `CCCCCCCCOC[N+](C)(C)Cc1ccccc1`, the mutagenic call (Test System: BACILLUS SUBTILIS, Strain/Indicator: H17/REC, Metabolic Activation: NONE, Method: STANDARD PLATE) was “inactive; negative” and the mutagenic call (Test System: BACILLUS SUBTILIS, Strain/Indicator: M45, Metabolic Activation: NONE, Method: STANDARD PLATE) is “inactive; negative”.
Consider `CCC[CH2][Sn]([CH2]CCC)([O]C(C)=O)[O]C(C)=O`, for which the mutagenic call reads like this: (Test System: AMES SALMONELLA TYPHIMURIUM, Strain/Indicator: TA98, Metabolic Activation: HAMSTER, LIVER, S-9, AROCLOR 1254 (10%), Method: PREINCUBATION) “inactive; negative”; under setting [2], “inactive; negative”; (Test System: AMES SALMONELLA TYPHIMURIUM, Strain/Indicator: TA98, Metabolic Activation: RAT, LIVER, S-9, AROCLOR 1254 (10%), Method: PREINCUBATION) “inactive; negative”; (Test System: AMES SALMONELLA TYPHIMURIUM, Strain/Indicator: TA100, Metabolic Activation: HAMSTER, LIVER, S-9, AROCLOR 1254 (10%), Method: PREINCUBATION) “inactive; negative”; under setting [3], “inactive; negative”; (Test System: AMES SALMONELLA TYPHIMURIUM, Strain/Indicator: TA100, Metabolic Activation: RAT, LIVER, S-9, AROCLOR 1254 (10%), Method: PREINCUBATION) “inactive; negative”. For the same molecule, the mutagenic call was “inactive; negative” (Test System: AMES SALMONELLA TYPHIMURIUM, Strain/Indicator: TA1535, Metabolic Activation: HAMSTER, LIVER, S-9, AROCLOR 1254 (10%), Method: PREINCUBATION); “inactive; negative” (Test System: AMES SALMONELLA TYPHIMURIUM, Strain/Indicator: TA1535, Metabolic Activation: NONE, Method: PREINCUBATION); “inactive; negative” (Test System: AMES SALMONELLA TYPHIMURIUM, Strain/Indicator: TA1535, Metabolic Activation: RAT, LIVER, S-9, AROCLOR 1254 (10%), Method: PREINCUBATION); “inactive; negative” (Test System: AMES SALMONELLA TYPHIMURIUM, Strain/Indicator: TA1537, Metabolic Activation: HAMSTER, LIVER, S-9, AROCLOR 1254 (10%), Method: PREINCUBATION); “inactive; negative” (Test System: AMES SALMONELLA TYPHIMURIUM, Strain/Indicator: TA1537, Metabolic Activation: NONE, Method: PREINCUBATION); “inactive; negative” (Test System: AMES SALMONELLA TYPHIMURIUM, Strain/Indicator: TA1537, Metabolic Activation: RAT, LIVER, S-9, AROCLOR 1254 (10%), Method: PREINCUBATION).
